Measurements from US6969730B2, “Amines as histamine-3 receptor ligands and their therapeutic applications” (Abbott Laboratories, priority 2001, dated 2005).
pKi: −log10 of the molar value.

Target: T1, histamine-3 receptors (H3 receptor) (Rattus norvegicus, UniProt Q9QYN8)
T1 construct: from tissue; host or cells: male Sprague-Dawley rat brain cortex membranes
Assay: (3H)-N-α-methylhistamine binding to rat cortical membranes (histamine-3 receptor ligands)
Details: male Sprague-Dawley rat brain cortical membranes; (3H)-N-α-methylhistamine ~0.6 nM; 30 minutes at 25° C.; Cheng-Prusoff
Procedure: Briefly, male Sprague-Dawley rat brain cortices were homogenized (1 g tissue/10 mL buffer) in 50 mM Tris-HCl/5 mM EDTA containing protease inhibitor cocktail (Calbiochem) using a polytron set at 20,500 rpm. Homogenates were centrifuged for 20 minutes at 40,000×g. The supernatant was decanted, and pellets were weighed. The pellet was resuspended by polytron homogenization in 40 mL 50 mM Tris-HCl/5 mM EDTA with protease inhibitors and centrifuged for 20 minutes at 40,000×g. […] Rat cortical membranes (12 mg wet weight/tube) were incubated with (^3H)-N-α-methylhistamine (˜0.6 nM) with or without H3 receptor antagonists in a total incubation volume of 0.5 mL of 50 mM Tris-HCl/5 mM EDTA (pH 7.7). Test compounds were dissolved in DSMO to provide a 20 mM solution, serially diluted and then added to the incubation mixture prior to initiating the incubation assay by addition of the membranes. Thioperamide (3 μM) was used to determine nonspecific binding. Binding incubations were conducted for 30 minutes at 25° C. and terminated by addition of 2 mL of ice cold 50 mM Tris-HCl (pH 7.7) and filtration through 0.3% polyethylenimine-soaked Unifilter plates (Packard). These filters were washed 4 additional times with 2 mL of ice-cold 50 mM Tris-HCl and dried for 1 hour. Radioactivity was determined using liquid scintillation counting techniques. Results were analyzed by Hill transformation and Ki values were determined using the Cheng-Prusoff equation.

T1 sequence (Q9QYN8 whole entry): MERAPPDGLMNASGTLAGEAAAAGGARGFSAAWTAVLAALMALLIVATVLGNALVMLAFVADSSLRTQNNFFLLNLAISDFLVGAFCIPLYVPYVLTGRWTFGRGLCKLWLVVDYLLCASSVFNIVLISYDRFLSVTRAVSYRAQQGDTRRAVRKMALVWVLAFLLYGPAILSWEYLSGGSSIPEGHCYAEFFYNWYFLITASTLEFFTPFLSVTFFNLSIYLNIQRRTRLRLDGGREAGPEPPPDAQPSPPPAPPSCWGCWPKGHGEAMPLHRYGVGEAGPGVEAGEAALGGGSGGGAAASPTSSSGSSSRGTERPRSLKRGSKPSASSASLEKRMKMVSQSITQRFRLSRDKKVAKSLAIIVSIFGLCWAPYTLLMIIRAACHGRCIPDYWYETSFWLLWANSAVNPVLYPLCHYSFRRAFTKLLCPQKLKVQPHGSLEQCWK

## 3-{[3-(2-{2-[(2R)-2-methylpyrrolidin-1-yl]ethyl}-1-benzofuran-5-yl)-1,2,4-oxadiazol-5-yl]methyl}benzonitrile [Example 93]
  pKi: 8.22

## 4-(2-{2-[-2,6-dimethylpiperidinyl]ethyl}-1-benzofuran-5-yl)benzonitrile [Example 11]
  pKi: 7.71

## 4-(6-methyl-2-{2-[(2R)-2-methyl-1-pyrrolidinyl]ethyl}-1-benzofuran-5-yl)benzonitrile and 4-(4-methyl-2-{2-[(2R)-2-methyl-1-pyrrolidinyl]ethyl}-1-benzofuran-5-yl)benzonitrile [Example 108]
  pKi: 8.10

## 4-[4-(2-{2-[-2,6-dimethylpiperidinyl]ethyl}-1-benzofuran-5-yl)benzoyl]morpholine [Example 29]
  pKi: 8.07

## N#Cc1ccc(-c2ccc3oc(CCN4CCCC4)cc3c2)cc1 [Example 2, 4-{2-[2-(1-pyrrolidinyl)ethyl]-1-benzofuran-5-yl}benzonitrile]
  pKi: 7.33

## N#Cc1ccc(-c2ccc3oc(CCN4CCCCC4)cc3c2)cc1 [Example 4, 4-{2-[2-(1-piperidinyl)ethyl]-1-benzofuran-5-yl}benzonitrile]
  pKi: 7.23

## CC1CCCCN1CCc1cc2cc(-c3ccc(C#N)cc3)ccc2o1 (stereo not shown) [Example 6, 4-{2-[2-(2-methyl-1-piperidinyl)ethyl]-1-benzofuran-5-yl}benzonitrile]
  pKi: 7.35

## COC(=O)[C@@H]1CCCN1CCc1cc2cc(-c3ccc(C#N)cc3)ccc2o1 [Example 15, 4-(2-{2-[2-pyrrolidinemethyl carboxylate]ethyl}-1-benzofuran-5-yl)benzonitrile]
  pKi: ≤ 6.00

## O=C(c1ccc(-c2ccc3oc(CCN4CCC[C@H]4CO)cc3c2)cc1)N1CCOCC1 [Example 34]
  pKi: 8.16

## C[C@@H]1CCC[C@H](C)N1CCc1cc2cc(-c3ccc(C(=O)N4CCOCC4)cn3)ccc2o1 [Example 50, 4-{[6-(2-{2-[-2,6-dimethylpiperidinyl]ethyl}-1-benzofuran-5-yl)-3-pyridinyl]carbonyl}morpholine]
  pKi: 7.43

## O=C(c1ccc(-c2ccc3oc(CCN4CCC5(CC4)OCCO5)cc3c2)nc1)N1CCOCC1 [Example 60, 8-(2-{5-[5-(4-morpholinylcarbonyl)-2-pyridinyl]-1-benzofuran-2-yl}ethyl)-1,4-dioxa-8-azaspiro[4.5]decane]
  pKi: ≤ 6.00

## C=CCNCCc1cc2cc(-c3ccc(C(=O)N4CCOCC4)cn3)ccc2o1 [Example 63, N-allyl-N-(2-{5-[5-(4-morpholinylcarbonyl)-2-pyridinyl]-1-benzofuran-2-yl}ethyl)amine]
  pKi: ≤ 6.00

## O=C(c1ccc(-c2ccc3oc(CCNCCCO)cc3c2)nc1)N1CCOCC1 [Example 64, 3-[(2-{5-[5-(4-morpholinylcarbonyl)-2-pyridinyl]-1-benzofuran-2-yl}ethyl)amino]-1-propanol]
  pKi: ≤ 6.00

## C[C@@H]1CCCN1CCc1cc2c(-c3ccc(C#N)cc3)cccc2o1 [Example 85, 4-(2-{2-[(2R)-2-methyl-1-pyrrolidinyl]ethyl}-1-benzofuran-4-yl)benzonitrile]
  pKi: 7.38

## C[C@@H]1CCCN1CCc1cc2ccc(-c3ccc(C#N)cc3)cc2o1 [Example 86, 4-(2-{2-[(2R)-2-methyl-1-pyrrolidinyl]ethyl}-1-benzofuran-6-yl)benzonitrile]
  pKi: 8.46

## C[C@@H]1CCCN1CCc1cc2cc(-c3noc(Cc4cccs4)n3)ccc2o1 [Example 87, 3-(2-{2-[(2R)-2-methylpyrrolidin-1-yl]ethyl}-1-benzofuran-5-yl)-5-(thien-2-ylmethyl)-1,2,4-oxadiazole]
  pKi: 7.80

## C[C@@H]1CCCN1CCc1cc2cc(-c3noc(-c4ccc(C#N)cc4)n3)ccc2o1 [Example 88, 4-[3-(2-{2-[(2R)-2-methylpyrrolidin-1-yl]ethyl}-1-benzofuran-5-yl)-1,2,4-oxadiazol-5-yl]benzonitrile]
  pKi: 7.19

## C[C@@H]1CCCN1CCc1cc2cc(-c3noc(-c4ccc(Cl)cc4)n3)ccc2o1 [Example 89, 5-(4-chlorophenyl)-3-(2-{2-[(2R)-2-methylpyrrolidin-1-yl]ethyl}-1-benzofuran-5-yl)-1,2,4-oxadiazole]
  pKi: 7.92

## C[C@@H]1CCCN1CCc1cc2cc(-c3noc(-c4ccccc4Cl)n3)ccc2o1 [Example 90, 5-(2-chlorophenyl)-3-(2-{2-[(2R)-2-methylpyrrolidin-1-yl]ethyl}-1-benzofuran-5-yl)-1,2,4-oxadiazole]
  pKi: 7.68

## C[C@@H]1CCCN1CCc1cc2cc(-c3noc(Cc4ccc(F)cc4)n3)ccc2o1 [Example 91, 5-(4-fluorobenzyl)-3-(2-{2-[(2R)-2-methylpyrrolidin-1-yl]ethyl}-1-benzofuran-5-yl)-1,2,4-oxadiazole]
  pKi: 8.00

## COc1ccc(Cc2nc(-c3ccc4oc(CCN5CCC[C@H]5C)cc4c3)no2)cc1 [Example 92, 5-(4-methoxybenzyl)-3-(2-{2-[(2R)-2-methylpyrrolidin-1-yl]ethyl}-1-benzofuran-5-yl)-1,2,4-oxadiazole]
  pKi: 7.82

## C[C@@H]1CCCN1CCc1cc2cc(-c3noc(-c4ccccc4)n3)ccc2o1 [Example 94, 3-(2-{2-[(2R)-2-methylpyrrolidin-1-yl]ethyl}-1-benzofuran-5-yl)-5-phenyl-1,2,4-oxadiazole]
  pKi: 7.80

## C[C@@H]1CCCN1CCc1cc2cc(-c3noc(-c4ccc(F)cc4)n3)ccc2o1 [Example 95, 5-(4-fluorophenyl)-3-(2-{2-[(2R)-2-methylpyrrolidin-1-yl]ethyl}-1-benzofuran-5-yl)-1,2,4-oxadiazole]
  pKi: 7.92

## C[C@@H]1CCCN1CCc1cc2cc(-c3noc(-c4ccc(F)c(Cl)c4)n3)ccc2o1 [Example 96, 5-(3-chloro-4-fluorophenyl)-3-(2-{2-[(2R)-2-methylpyrrolidin-1-yl]ethyl}-1-benzofuran-5-yl)-1,2,4-oxadiazole]
  pKi: 6.65

## C[C@@H]1CCCN1CCc1cc2cc(-c3noc(CCl)n3)ccc2o1 [Example 97, 5-(chloromethyl)-3-(2-{2-[(2R)-2-methylpyrrolidin-1-yl]ethyl}-1-benzofuran-5-yl)-1,2,4-oxadiazole]
  pKi: 8.85

## CCCc1nc(-c2ccc3oc(CCN4CCC[C@H]4C)cc3c2)no1 [Example 98, 3-(2-{2-[(2R)-2-methylpyrrolidin-1-yl]ethyl}-1-benzofuran-5-yl)-5-propyl-1,2,4-oxadiazole]
  pKi: 9.15

## CCc1nc(-c2ccc3oc(CCN4CCC[C@H]4C)cc3c2)no1 [Example 99, 5-ethyl-3-(2-{2-[(2R)-2-methylpyrrolidin-1-yl]ethyl}-1-benzofuran-5-yl)-1,2,4-oxadiazole]
  pKi: 8.44

## Cc1nc(-c2ccc3oc(CCN4CCC[C@H]4C)cc3c2)no1 [Example 100, 5-methyl-3-(2-{2-[(2R)-2-methylpyrrolidin-1-yl]ethyl}-1-benzofuran-5-yl)-1,2,4-oxadiazole]
  pKi: 8.22

## C[C@@H]1CCCN1CCc1oc2ccc(-c3ccc(C#N)cc3)cc2c1Br [Example 101, 4-(3-bromo-2-{2-[(2R)-2-methylpyrrolidin-1-yl]ethyl}-1-benzofuran-5-yl)benzonitrile]
  pKi: 8.47

## C[C@@H]1CCCN1CCc1oc2ccc(-c3ccc(C#N)cc3)cc2c1-c1ccco1 [Example 102, 4-(3-(2-furyl)-2-{2-[(2R)-2-methylpyrrolidin-1-yl]ethyl}-1-benzofuran-5-yl)benzonitrile]
  pKi: 7.74

## C[C@@H]1CCCN1CCc1oc2ccc(-c3ccc(C#N)cc3)cc2c1-c1cccnc1 [Example 103, 4-[2-{2-[(2R)-2-methyl-1-pyrrolidinyl]ethyl}-3-(3-pyridinyl)-1-benzofuran-5-yl]benzonitrile]
  pKi: 7.89

## C[C@@H]1CCCN1CCc1oc2ccc(-c3ccc(C#N)cc3)cc2c1-c1ccsc1 [Example 104, 4-[2-{2-[(2R)-2-methyl-1-pyrrolidinyl]ethyl}-3-(3-thienyl)-1-benzofuran-5-yl]benzonitrile]
  pKi: 7.39

## C[C@@H]1CCCN1CCc1oc2ccc(-c3ccc(C#N)cc3)cc2c1-c1ccsc1C=O [Example 105, 4-(3-(2-formyl-3-thienyl)-2-{2-[(2R)-2-methyl-1-pyrrolidinyl]ethyl}-1-benzofuran-5-yl)benzonitrile]
  pKi: 8.22

## Cc1cc(-c2ccc3oc(CCN4CCC[C@H]4C)cc3c2)ccc1C#N [Example 106, 2-methyl-4-(2-{2-[(2R)-2-methyl-1-pyrrolidinyl]ethyl}-1-benzofuran-5-yl)benzonitrile]
  pKi: 8.64

## Cc1cc(C#N)ccc1-c1ccc2oc(CCN3CCC[C@H]3C)cc2c1 [Example 107, 3-methyl-4-(2-{2-[(2R)-2-methyl-1-pyrrolidinyl]ethyl}-1-benzofuran-5-yl)benzonitrile]
  pKi: 8.10

## Cc1cc(-c2ccc(C#N)cc2)cc2cc(CCN3CCC[C@H]3C)oc12 [Example 109, 4-(7-methyl-2-{2-[(2R)-2-methyl-1-pyrrolidinyl]ethyl}-1-benzofuran-5-yl)benzonitrile]
  pKi: 8.00

## C[C@@H]1CCCN1CCc1cc2cc(-c3ccc(C#N)cc3)cc(F)c2o1 [Example 110, 4-(7-fluoro-2-{2-[(2R)-2-methyl-1-pyrrolidinyl]ethyl}-1-benzofuran-5-yl)benzonitrile]
  pKi: 8.22
